Source: the supplement of paper PMC7214452

Key:
Assay in all cases: normalized area under the dose-response curve (viability relative to DMSO control) (fraction); higher = less sensitive (more viable cells)
Conditions in all cases: exposure time not given
My-La (cancer type: TCL) = tested on: My-La (cancer type: TCL)
Method: (§1)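 25 myeloma and 15 non-Hodgkin lymphoma cell lines were exposed to each of 76 drugs as 7-point log dilutions (0.01 nM–10 µM) in duplicate. Viability was read with CellTiter-Glo and normalised to DMSO (0.1%) and staurosporine (10 µM) plate controls. Normalised AUC was calculated by the trapezoidal method relative to the negative control.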

[1] = tested on: JVM2 (cancer type: Mantle)
Method: as §1

[2] = tested on: OCI-LY19 (cancer type: DLBCL)
Method: as §1

[3] = tested on: Mino (cancer type: Mantle)
Method: as §1

XG2 (cancer type: MM) = tested on: XG2 (cancer type: MM)
Method: as §1

MM1.R (cancer type: MM) = tested on: MM1.R (cancer type: MM)
Method: as §1

[4] = tested on: SR-786 (cancer type: TCL)
Method: as §1

KMS26 (cancer type: MM) = tested on: KMS26 (cancer type: MM)
Method: as §1

[5] = tested on: RPMI 8226 (cancer type: MM)
Method: as §1

JJN3 (cancer type: MM) = tested on: JJN3 (cancer type: MM)
Method: as §1

SKMM2 (cancer type: MM) = tested on: SKMM2 (cancer type: MM)
Method: as §1

LP1 (cancer type: MM) = tested on: LP1 (cancer type: MM)
Method: as §1

[6] = tested on: HuT 78 (cancer type: TCL)
Method: as §1

[7] = tested on: OCI-LY3 (cancer type: DLBCL)
Method: as §1

[8] = tested on: NCI-H929 (cancer type: MM)
Method: as §1

[9] = tested on: OCI-MY5 (cancer type: MM)
Method: as §1

[10] = tested on: OCI-LY1 (cancer type: DLBCL)
Method: as §1

Se-Ax (cancer type: TCL) = tested on: Se-Ax (cancer type: TCL)
Method: as §1

MM1.S (cancer type: MM) = tested on: MM1.S (cancer type: MM)
Method: as §1

L363 (cancer type: MM) = tested on: L363 (cancer type: MM)
Method: as §1

[11] = tested on: SU-DHL2 (cancer type: DLBCL)
Method: as §1

KMS34 (cancer type: MM) = tested on: KMS34 (cancer type: MM)
Method: as §1

AMO1 (cancer type: MM) = tested on: AMO1 (cancer type: MM)
Method: as §1

[12] = tested on: KMS28BM (cancer type: MM)
Method: as §1

EJM (cancer type: MM) = tested on: EJM (cancer type: MM)
Method: as §1

[13] = tested on: OCI-MY5/Vec (cancer type: MM)
Method: as §1

[14] = tested on: Granta-519 (cancer type: Mantle)
Method: as §1

[15] = tested on: SU-DHL6 (cancer type: DLBCL)
Method: as §1

OPM2 (cancer type: MM) = tested on: OPM2 (cancer type: MM)
Method: as §1

[16] = tested on: KMS28PE (cancer type: MM)
Method: as §1

[17] = tested on: OCI-MY5/CRBN (cancer type: MM)
Method: as §1

U266 (cancer type: MM) = tested on: U266 (cancer type: MM)
Method: as §1

[18] = tested on: SU-DHL1 (cancer type: TCL)
Method: as §1

[19] = tested on: JeKo-1 (cancer type: Mantle)
Method: as §1

FR4 (cancer type: MM) = tested on: FR4 (cancer type: MM)
Method: as §1

[20] = tested on: KMS12PE (cancer type: MM)
Method: as §1

[21] = tested on: OCI-MY7 (cancer type: MM)
Method: as §1

KMS11 (cancer type: MM) = tested on: KMS11 (cancer type: MM)
Method: as §1

KMS18 (cancer type: MM) = tested on: KMS18 (cancer type: MM)
Method: as §1

[22] = tested on: Karpas-299 (cancer type: TCL)
Method: as §1

Row | Compound | normalized area under the dose-response curve (My-La (cancer type: TCL)) | normalized area under the dose-response curve [1] | normalized area under the dose-response curve [2] | normalized area under the dose-response curve [3] | normalized area under the dose-response curve (XG2 (cancer type: MM)) | normalized area under the dose-response curve (MM1.R (cancer type: MM)) | normalized area under the dose-response curve [4] | normalized area under the dose-response curve (KMS26 (cancer type: MM)) | normalized area under the dose-response curve [5] | normalized area under the dose-response curve (JJN3 (cancer type: MM)) | normalized area under the dose-response curve (SKMM2 (cancer type: MM)) | normalized area under the dose-response curve (LP1 (cancer type: MM)) | normalized area under the dose-response curve [6] | normalized area under the dose-response curve [7] | normalized area under the dose-response curve [8] | normalized area under the dose-response curve [9] | normalized area under the dose-response curve [10] | normalized area under the dose-response curve (Se-Ax (cancer type: TCL)) | normalized area under the dose-response curve (MM1.S (cancer type: MM)) | normalized area under the dose-response curve (L363 (cancer type: MM)) | normalized area under the dose-response curve [11] | normalized area under the dose-response curve (KMS34 (cancer type: MM)) | normalized area under the dose-response curve (AMO1 (cancer type: MM)) | normalized area under the dose-response curve [12] | normalized area under the dose-response curve (EJM (cancer type: MM)) | normalized area under the dose-response curve [13] | normalized area under the dose-response curve [14] | normalized area under the dose-response curve [15] | normalized area under the dose-response curve (OPM2 (cancer type: MM)) | normalized area under the dose-response curve [16] | normalized area under the dose-response curve [17] | normalized area under the dose-response curve (U266 (cancer type: MM)) | normalized area under the dose-response curve [18] | normalized area under the dose-response curve [19] | normalized area under the dose-response curve (FR4 (cancer type: MM)) | normalized area under the dose-response curve [20] | normalized area under the dose-response curve [21] | normalized area under the dose-response curve (KMS11 (cancer type: MM)) | normalized area under the dose-response curve (KMS18 (cancer type: MM)) | normalized area under the dose-response curve [22]
1 | COC(=O)c1ccc2c(c1)NC(=O)/C2=C(\Nc1ccc(N(C)C(=O)CN2CCN(C)CC2)cc1)c1ccccc1 [Nintedanib] | 0.902 | 0.815 | 0.906 | 0.956 | 0.764 | 0.84 | 0.828 | 0.764 | 0.791 | 0.979 | 0.943 | 0.828 | 0.883 | 0.992 | 0.87 | 0.846 | 0.98 | 0.92 | 0.79 | 0.798 | 0.966 | 0.835 | 0.801 | 0.87 | 0.784 | 0.957 | 0.942 | 0.919 | 0.844 | 0.737 | 0.929 | 0.941 | 0.839 | 0.933 | 0.911 | 0.94 | 0.97 | 0.723 | 0.934 | 0.862
2 | C=CC(=O)Nc1cc(Nc2nccc(-c3cn(C)c4ccccc34)n2)c(OC)cc1N(C)CCN(C)C [Osimertinib] | 0.769 | 0.597 | 0.872 | 0.601 | 0.422 | 0.45 | 0.521 | 0.532 | 0.429 | 0.439 | 0.506 | 0.406 | 0.473 | 0.931 | 0.47 | 0.399 | 0.937 | 0.445 | 0.44 | 0.466 | 0.925 | 0.337 | 0.423 | 0.53 | 0.429 | 0.535 | 0.834 | 0.911 | 0.489 | 0.476 | 0.551 | 0.451 | 0.463 | 0.626 | 0.582 | 0.46 | 0.42 | 0.417 | 0.442 | 0.574
3 | CC(=O)O[C@H]1C(=O)[C@@]2(C)[C@H]([C@H](OC(=O)c3ccccc3)[C@]3(O)C[C@H](OC(=O)[C@H](O)[C@@H](NC(=O)c4ccccc4)c4ccccc4)C(C)=C1C3(C)C)[C@]1(OC(C)=O)CO[C@@H]1C[C@@H]2O [Paclitaxel] | 0.896 | 0.78 | 0.652 | 0.556 | 0.542 | 0.58 | 0.417 | 0.767 | 0.781 | 0.993 | 0.98 | 0.865 | 0.329 | 0.582 | 0.49 | 0.666 | 0.354 | 0.635 | 0.52 | 0.726 | 0.642 | 0.787 | 0.595 | 0.698 | 0.751 | 0.478 | 0.544 | 0.793 | 0.89 | 0.675 | 0.595 | 0.51 | 0.611 | 0.3 | 0.703 | 0.85 | 0.86 | 0.853 | 0.702 | 0.454
4 | CC(=O)c1c(C)c2cnc(Nc3ccc(N4CCNCC4)cn3)nc2n(C2CCCC2)c1=O [Palbociclib] | 0.745 | 0.65 | 0.727 | 0.655 | 0.656 | 0.77 | 0.821 | 0.769 | 0.636 | 0.694 | 0.782 | 0.794 | 0.712 | 0.791 | 0.91 | 0.561 | 0.889 | 0.776 | 0.69 | 0.743 | 0.897 | 0.751 | 0.529 | 0.932 | 0.733 | 0.746 | 0.876 | 0.771 | 0.852 | 0.851 | 0.9 | 0.688 | 0.705 | 0.656 | 0.716 | 0.74 | 0.82 | 0.79 | 0.81 | 0.837
